Measurements from patent US9896441B2 (Lycera Corporation, priority 2014, dated 2018).
pEC50: −log10 of the molar value.

Experiments:
RORγ-LBD = biological target: T1, RORγ-LBD (Homo sapiens, UniProt P51449); assay: RORγ-Ligand Binding Domain (LBD) TR-FRET Assay; assay type: biochemical; details: for TR-FRET Assay Max Response: maximum response;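 on TR-FRET Assay Max Response: 665/615 nm signal ratio set to 100 without ursolic acid or test compound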
T1 construct: made in house; host or cells: SF9 cells (baculovirus); used as diluted lysate
T1 sequence (P51449 269-508 limits assumed): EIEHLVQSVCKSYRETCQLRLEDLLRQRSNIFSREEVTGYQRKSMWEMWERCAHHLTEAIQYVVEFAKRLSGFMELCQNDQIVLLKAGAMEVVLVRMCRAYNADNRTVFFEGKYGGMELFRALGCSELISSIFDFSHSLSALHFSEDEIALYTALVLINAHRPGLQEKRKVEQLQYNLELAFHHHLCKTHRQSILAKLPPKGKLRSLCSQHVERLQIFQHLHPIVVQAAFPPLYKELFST
Method in brief: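 SF9 lysate containing His-RORγ-LBD, ~3 nM final; coactivator peptide biotin-SRC1 LXXLL, 200 nM final; ursolic acid 2 μM final; DMSO 1% final; Tris pH 7.0 buffer with KCl, EDTA, DTT, BSA. TR-FRET format.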

Gal4-RORγ-LBD = biological target: T2, Gal4-RORγ-LBD (Homo sapiens, UniProt P51449); assay: Gal4-RORγ Luciferase Reporter Assay in HEK-293T Cells; assay type: cell-based; details: HEK-293 cells; for Gal4-RORγ Assay Max Response: maximum response
T2 construct: expressed in transfected cells
T2 sequence (P51449 269-508 limits assumed): T1 sequence (P51449 269-508 limits assumed)
Method in brief: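 HEK-293 cells were co-transfected with Gal4-RORγ-LBD and a Gal4-luciferase reporter, then exposed overnight at 37 °C to compounds with […] ursolic acid present (0.2% DMSO). Luminescence was read with One-Glo after 10 min at RT, untreated signal was set as 100, and Max Response was taken as the upper plateau of a 4-parameter logistic fit.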

[1] = luciferase reporter, with ursolic acid
[2] = luciferase reporter, in presence of ursolic acid
[3] = with 2 μM ursolic acid (RORγ antagonist), highest test concentration 10 μM
[4] = ursolic acid present, luciferase readout

Work on `CCOc1nn(CC)cc1S(=O)(=O)N1C[C@H](CCC(=O)OC)Oc2ccc(/C=C/c3cccs3)cc21` [Example 89P, (S,E)-methyl 3-(4-((3-ethoxy-1-ethyl-1H-pyrazol-4-yl)sulfonyl)-6-(2-(thiophen-2-yl)vinyl)-3,4-dihydro-2H-benzo[b][1,4]oxazin-2-yl)propanoate] yielded a pEC50 (RORγ-LBD; RORγ-LBD TR-FRET) of 5.30 to 6.30 and a pEC50 (Gal4-RORγ-LBD; [1]) of under 5.00.
`COC(=O)CC[C@H]1CN(S(=O)(=O)c2cccc(C(F)(F)F)c2)c2cc(/C=C(\C)c3c(C)noc3C)ccc2O1` [Example 86AD, (S,E)-methyl 3-(6-(2-(3,5-dimethylisoxazol-4-yl)prop-1-en-1-yl)-4-((3-(trifluoromethyl)-phenyl)sulfonyl)-3,4-dihydro-2H-benzo[b][1,4]oxazin-2-yl)-propanoate] was tested, and the pEC50 (RORγ-LBD; RORγ-LBD TR-FRET) was over 6.30 and the pEC50 (Gal4-RORγ-LBD; [1]) was 5.30 to 6.30.
Compound `CCn1cc(S(=O)(=O)N2C[C@H](CCC(=O)O)Oc3ccc(/C=C/c4ncccc4Cl)cc32)c(Cl)n1` [Example 89CQ, (S,E)-3-(4-((3-chloro-1-ethyl-1H-pyrazol-4-yl)sulfonyl)-6-(2-(3-chloropyridin-2-yl)vinyl)-3,4-dihydro-2H-benzo[b][1,4]oxazin-2-yl)propanoic acid] has a pEC50 (RORγ-LBD; RORγ-LBD TR-FRET) of over 6.30 and a pEC50 (Gal4-RORγ-LBD; [1]) of 5.30 to 6.30.
`CCc1ccccc1/C=C/c1ccc2c(c1)N(S(=O)(=O)c1cccc(OC(F)F)c1)C[C@H](CCC(=O)O)O2` [Example 89AW, (S,E)-3-(4-((3-(difluoromethoxy)phenyl)sulfonyl)-6-(2-ethylstyryl)-3,4-dihydro-2H-benzo[b][1,4]oxazin-2-yl)propanoic acid] showed a pEC50 (RORγ-LBD; RORγ-LBD TR-FRET) of over 6.30 and a pEC50 (Gal4-RORγ-LBD; [1]) of 5.30 to 6.30.
`O=C(CC[C@H]1CN(S(=O)(=O)c2cccc(C(F)(F)F)c2)c2cc(/C=C/c3c(F)cccc3Cl)ccc2O1)N1CC2(COC2)C1` [Example 127I, (S,E)-3-(6-(2-chloro-6-fluorostyryl)-4-((3-(trifluoromethyl)phenyl)sulfonyl)-3,4-dihydro-2H-benzo[b][1,4]oxazin-2-yl)-1-(2-oxa-6-azaspiro[3.3]heptan-6-yl)propan-1-one] was tested, and the pEC50 (RORγ-LBD; RORγ-LBD TR-FRET assay) was over 6.30, the “TR-FRET Assay Max Response” value (RORγ-LBD; RORγ-LBD TR-FRET assay) was “*** (a value in the range of greater than 150 to 200)” and the pEC50 (Gal4-RORγ-LBD; [2]) was 5.30 to 6.30. The “Gal4-RORγ Assay Max Response” value (Gal4-RORγ-LBD; [2]) was “** (a value in the range of greater than 90 to 150)”.
Compound `COC(=O)CC[C@H]1CN(S(=O)(=O)c2cccc(C(F)(F)F)c2)c2c(ccc(/C=C(\C)c3c(F)cccc3Cl)c2F)O1` [Example 61, Methyl (S,E)-3-(6-(2-(2-chloro-6-fluorophenyl)prop-1-en-1-yl)-5-fluoro-4-((3-(trifluoromethyl)phenyl)sulfonyl)-3,4-dihydro-2H-benzo[b][1,4]oxazin-2-yl)propanoate] has a pEC50 (RORγ-LBD; RORγ-LBD TR-FRET) of over 6.30 and a pEC50 (Gal4-RORγ-LBD; [1]) of 5.30 to 6.30.
Work on `O=C(O)CC[C@H]1CN(S(=O)(=O)c2cc(Cl)cnc2OCCO)c2cc(/C=C/c3c(F)cccc3Cl)ccc2O1` [Example 89AL, (S,E)-3-(4-((5-chloro-2-(2-hydroxyethoxy)pyridin-3-yl)sulfonyl)-6-(2-chloro-6-fluorostyryl)-3,4-dihydro-2H-benzo[b][1,4]oxazin-2-yl)propanoic acid] yielded a pEC50 (RORγ-LBD; RORγ-LBD TR-FRET) of over 6.30 and a pEC50 (Gal4-RORγ-LBD; [1]) of 5.30 to 6.30.
In the case of `C[C@@H]1[C@@H](O)Cc2ccc(/C=C/c3c(F)cccc3Cl)cc2N1S(=O)(=O)c1cccc(C(F)(F)F)c1` (racemic) [Example 176, rac-(2R,3S)-7-((E)-2-Chloro-6-fluorostyryl)-2-methyl-1-((3-(trifluoromethyl)phenyl)sulfonyl)-1,2,3,4-tetrahydroquinolin-3-ol], the pEC50 (RORγ-LBD; RORγ-LBD TR-FRET assay) was over 6.30, the “TR-FRET Assay Max Response” value (RORγ-LBD; RORγ-LBD TR-FRET assay) was “*** (a value in the range of greater than 150 to 200)” and the pEC50 (Gal4-RORγ-LBD; [2]) was 5.30 to 6.30. The “Gal4-RORγ Assay Max Response” value (Gal4-RORγ-LBD; [2]) was “** (a value in the range of greater than 90 to 150)”.
`COC(=O)CC[C@H]1CN(S(=O)(=O)c2cc(C(F)(F)F)cnc2OC[C@@H](C)O)c2cc(/C=C/c3c(F)cccc3Cl)ccc2O1` [Example 78, Methyl 3-((S)-6-((E)-2-chloro-6-fluorostyryl)-4-((2-((R)-2-hydroxypropoxy)-5-(trifluoromethyl)pyridin-3-yl)sulfonyl)-3,4-dihydro-2H-benzo[b][1,4]oxazin-2-yl)propanoate] showed a pEC50 (RORγ-LBD; RORγ-LBD TR-FRET) of 5.30 to 6.30 and a pEC50 (Gal4-RORγ-LBD; [1]) of 5.30 to 6.30.
`CCOC(=O)C1Cc2ccc(CCc3c(F)cccc3Cl)cc2N(S(=O)(=O)c2cccc(C(F)(F)F)c2)C1` (stereo not drawn) gave a pEC50 (RORγ-LBD; [3]) of over 6.30 and a pEC50 (Gal4-RORγ-LBD; [4]) of over 6.30.
With `COC(=O)CC[C@H]1CN(S(=O)(=O)c2cccc(C(F)(F)F)c2)c2cc(/C=C/c3c(Cl)cccc3C(C)(F)F)ccc2O1` [Example 89EW, methyl (S,E)-3-(6-(2-chloro-6-(1,1-difluoroethyl)styryl)-4-((3-(trifluoromethyl)phenyl)-sulfonyl)-3,4-dihydro-2H-benzo[b][1,4]oxazin-2-yl)propanoate] the pEC50 (RORγ-LBD; RORγ-LBD TR-FRET) was over 6.30 and the pEC50 (Gal4-RORγ-LBD; [1]) was over 6.30.
With `CC(F)(F)c1cccc(Cl)c1/C=C/c1ccc2c(c1)N(S(=O)(=O)c1cc(C(F)(F)F)cnc1OCCO)C[C@H](CCC(=O)O)O2` [Example 89FI, (S,E)-3-(6-(2-chloro-6-(1,1-difluoroethyl)styryl)-4-((2-(2-hydroxyethoxy)-5-(trifluoromethyl)pyridin-3-yl)sulfonyl)-3,4-dihydro-2H-benzo[b][1,4]-oxazin-2-yl)propanoic acid] the pEC50 (RORγ-LBD; RORγ-LBD TR-FRET) was over 6.30 and the pEC50 (Gal4-RORγ-LBD; [1]) was over 6.30.
`COc1cccc(S(=O)(=O)N2C[C@H](CCC(=O)O)Oc3ccc(/C=C(\C)c4c(F)cccc4Cl)cc32)c1` [Example 86M, (S,E)-3-(6-(2-(2-chloro-6-fluorophenyl)prop-1-en-1-yl)-4-((3-methoxyphenyl)sulfonyl)-3,4-dihydro-2H-benzo[b][1,4]oxazin-2-yl)propanoic acid] showed a pEC50 (RORγ-LBD; RORγ-LBD TR-FRET) of over 6.30 and a pEC50 (Gal4-RORγ-LBD; [1]) of 5.30 to 6.30.
`C[C@H]1CN(S(=O)(=O)c2cccc(C(F)(F)F)c2)c2cc(COc3c(F)cccc3Cl)ccc2O1` showed a pEC50 (RORγ-LBD; [3]) of over 6.30 and a pEC50 (Gal4-RORγ-LBD; [4]) of 5.00 to 5.30.
`C/C(=C\c1ccc2c(c1)N(S(=O)(=O)c1cccc(C(F)(F)F)c1)[C@H](C)[C@H](NC(=O)N(C)C)C2)c1c(F)cccc1Cl` [Example 146, 3-((2R,3R)-7-((E)-2-(2-Chloro-6-fluorophenyl)prop-1-en-1-yl)-2-methyl-1-((3-(trifluoromethyl)phenyl)sulfonyl)-1,2,3,4-tetrahydroquinolin-3-yl)-1,1-dimethylurea] was tested, and the pEC50 (RORγ-LBD; RORγ-LBD TR-FRET assay) was over 6.30, the “TR-FRET Assay Max Response” value (RORγ-LBD; RORγ-LBD TR-FRET assay) was “** (a value in the range of greater than 90 to 150)” and the pEC50 (Gal4-RORγ-LBD; [2]) was under 5.00.
In the case of `CC(=O)N[C@H]1Cc2ccc(/C=C(\C)c3c(F)cccc3Cl)cc2N(S(=O)(=O)c2cccc(C(F)(F)F)c2)C1` [Example 167, (S,E)-N-(7-(2-(2-chloro-6-fluorophenyl)prop-1-en-1-yl)-1-((3-(trifluoromethyl)phenyl)sulfonyl)-1,2,3,4-tetrahydroquinolin-3-yl)acetamide], the pEC50 (RORγ-LBD; RORγ-LBD TR-FRET assay) was over 6.30, the “TR-FRET Assay Max Response” value (RORγ-LBD; RORγ-LBD TR-FRET assay) was “*** (a value in the range of greater than 150 to 200)” and the pEC50 (Gal4-RORγ-LBD; [2]) was 5.30 to 6.30. For the same compound, the “Gal4-RORγ Assay Max Response” value (Gal4-RORγ-LBD; [2]) was “** (a value in the range of greater than 90 to 150)”.
With `C/C(=C\c1ccc2c(c1)N(S(=O)(=O)c1cccc(C(F)(F)F)c1)C[C@H](CNC(=O)N(C)CCC(=O)O)O2)c1c(F)cccc1Cl` [Example 116P, (S,E)-3-(3-((6-(2-(2-chloro-6-fluorophenyl)prop-1-en-1-yl)-4-((3-(trifluoromethyl)phenyl)sulfonyl)-3,4-dihydro-2H-benzo[b][1,4]-oxazin-2-yl)methyl)-1-methylureido)propanoic acid] the pEC50 (RORγ-LBD; [3]) was over 6.30 and the pEC50 (Gal4-RORγ-LBD; [4]) was over 6.30.
`CCOc1nn(CC)cc1S(=O)(=O)N1C[C@H](CCC(=O)OC)Oc2ccc(/C=C/c3ccccc3Cl)cc21` [Example 89BD, (S,E)-methyl 3-(6-(2-chlorostyryl)-4-((3-ethoxy-1-ethyl-1H-pyrazol-4-yl)sulfonyl)-3,4-dihydro-2H-benzo[b][1,4]-oxazin-2-yl)propanoate] was tested, and the pEC50 (RORγ-LBD; RORγ-LBD TR-FRET) was over 6.30 and the pEC50 (Gal4-RORγ-LBD; [1]) was under 5.00.
For `O=C(CC[C@H]1CN(S(=O)(=O)c2cccc(C(F)(F)F)c2)c2cc(/C=C/c3c(Cl)cccc3C(F)(F)F)ccc2O1)N1CC2(COC2)C1` [Example 127G, (S,E)-3-(6-(2-chloro-6-(trifluoromethyl)styryl)-4-((3-(trifluoromethyl)-phenyl)sulfonyl)-3,4-dihydro-2H-benzo[b][1,4]oxazin-2-yl)-1-(2-oxa-6-azaspiro[3.3]heptan-6-yl)propan-1-one], the pEC50 (RORγ-LBD; RORγ-LBD TR-FRET assay) was over 6.30, the “TR-FRET Assay Max Response” value (RORγ-LBD; RORγ-LBD TR-FRET assay) was “**** (a value greater than 200)” and the pEC50 (Gal4-RORγ-LBD; [2]) was 5.30 to 6.30. The “Gal4-RORγ Assay Max Response” value (Gal4-RORγ-LBD; [2]) was “* (a value in the range of 30 to 90)”.
In the case of `C/C(=C\c1ccc2c(c1F)N(S(=O)(=O)c1cccc(C(F)(F)F)c1)C[C@H](CCC(=O)O)O2)c1c(F)cccc1Cl` [Example 62, (S,E)-3-(6-(2-(2-Chloro-6-fluorophenyl)prop-1-en-1-yl)-5-fluoro-4-((3-(trifluoromethyl)phenyl)sulfonyl)-3,4-dihydro-2H-benzo[b][1,4]oxazin-2-yl)propanoic acid], the pEC50 (RORγ-LBD; RORγ-LBD TR-FRET) was over 6.30 and the pEC50 (Gal4-RORγ-LBD; [1]) was 5.30 to 6.30.
Compound `CCOc1nn(CC)cc1S(=O)(=O)N1C[C@H](CCC(=O)O)Oc2ccc(/C=C/c3cccc(OC)n3)cc21` [Example 89S, (S,E)-3-(4-((3-ethoxy-1-ethyl-1H-pyrazol-4-yl)sulfonyl)-6-(2-(6-methoxypyridin-2-yl)vinyl)-3,4-dihydro-2H-benzo[b][1,4]-oxazin-2-yl)propanoic acid] has a pEC50 (RORγ-LBD; RORγ-LBD TR-FRET) of 5.30 to 6.30 and a pEC50 (Gal4-RORγ-LBD; [1]) of under 5.00.
